What was measured:
pancreas = test: Intra-ductal RC infusion (PEP model) in mice: histological severity, serum amylase; format: in vivo, mouse
Excerpt: Intra-ductal RC infusion in mice. The procedure for retrograde infusion into the CBD and pancreatic duct has been described before^14. Briefly, Swiss Webster mice were anesthetized with isoflurane. A midline incision was made to reveal the abdominal cavity. The duodenum was flipped to reveal its distal side and held in place by ligatures. […] needle was inserted through the anti-mesenteric aspect of the duodenum to cannulate the CBD. A small bull dog clamp was applied to the distal CBD (near the duodenum) to prevent back flow of the infusate into the duodenal lumen and to hold the cannula in place. A larger bull dog clamp was applied to the proximal CBD (near the liver) to prevent infusion into the liver and thus to direct flow to the pancreatic duct. Total volumes of 50-100 μl of iohexol, iopamidol, or normal saline (NS) were infused at 10-20 μl per min for 5 min using a P33 perfusion pump (Harvard Apparatus, Holliston, Mass.). Upon completion of the infusion, the bull dog clamps were released. The exterior abdominal wound was closed using 7 mm wound clips, and a single injection of buprenorphine (0.075 mg/kg) was given immediately after the surgery. Mice recovered on a heating pad for 30 min after the procedure. They were given free access to food and water after the surgery. Pancreas tissue preparation, histological grading, and serum amylase. The pancreas, duodenum, and spleen were fixed at room temperature for 24 hr in 4% paraformaldehyde. Paraffin-embedded sections were stained with hematoxylin an eosin (HE) and graded using a 20× objective over 10 separate fields in a blinded fashion. Pancreas tissue was graded for edema, inflammatory infiltrate, and necrosis as described by Wildi et al.^67. Whole blood samples were centrifuged at 1500×g for 5 min at 4° C. Serum amylase was measured using a Phadebas kit (Amersham Pharmacia, Rochester N.Y.) as previously described^68.

[1] = test system: mouse pancreatic acinar cells; test: Ca^2+ signals (Fluo-4AM) in mouse pancreatic acinar cells; format: cell-based; details: RC 25% and 33%
Procedure: Detection and analysis of cellular Ca^2+ signals from mouse and human acini. Acinar cells were loaded at room temperature with the high-affinity Ca^2+-sensing dye Fluo-4AM (Kd=300 nM; Invitrogen). Acinar cells were plated on acid-washed glass coverslips and then mounted on a perifusion chamber. Thereupon, they were stimulated at room temperature with varying concentrations of RC (17-50%) diluted in HEPES buffer. Carbachol (1 mM) was given at the end of each experiment to confirm that the cells were intact and could mobilize intracellular Ca^2+ stores. A Zeiss LSM710 laser scanning confocal microscope was used with a 20×, 1.4 numerical aperture objective. The dye was excited at 488 nm wavelength, and emission signals of >515 nm were collected every 2 sec. Fluorescence from individual acinar cells was recorded. Analysis of recordings was performed using ImageJ software (NIH, Bethesda, Md.), and mean fluorescence over time in each region was graphed.
Preparation of mouse pancreatic acini for Ca^2+ imaging. Groups of pancreatic acinar cells were isolated as previously described^26,69, with minor modifications. […]

primary acinar cells = test: Cell necrosis assay (propidium iodide uptake), primary acinar cells; format: cell-based, mouse
Procedure: Cell necrosis assay. Acinar cells were incubated in a 48-well plate with 50 μg/ml of propidium iodide (PI) for 30 min prior to addition of RC. Fluorescence was measured at 536 nm excitation and 617 nm emission wavelengths over time a time course of up to 6 hr. Fluorescence was measured after cell lysis with 0.5% Triton-X 100 was used to normalize the results relative to total DNA.

pancreatic acinar cells = test: ATP level measurements in pancreatic acinar cells; format: cell-based, mouse; details: RC, concentration dependent
Procedure: ATP level measurements. Following isolation, pancreatic acinar cells were cultured in DMEM/F12 Medium (0.5 ml/well of a 48-well plate) at 37° C. water bath and treated with RC±FK506. Cells were collected at indicated time points and lysed in 100 μl lysis buffer (100 mM Tris pH 7.75, 4 mM EDTA). ATP levels were measured from 20 μl aliquots of acinar cell lysates using the ENLITEN luciferase/luciferin reagent (Promega catalog no. FF2021).

pancreatic NF-κB = test: Imaging pancreatic NF-κB bioluminescence in vivo (AAV6-NF-κB-luciferase); design: species or system mouse; details: RC-infused mice, 4 hr after surgery
Procedure: Imaging pancreatic NF-κB bioluminescence in vivo. An AAV6-NF-κB-luciferase reporter was constructed, expanded in HEK293 cells, and purified as previously described^18-20,39. A volume of 100 μl of virus (10^12 GCP/ml) was infused into the pancreaticobiliary duct at a rate of 10 μl/min using the same technique of RC infusion described above and recently published^21,39. After a 5-week recovery from the surgery, mice underwent PEP induction with or without FK506 treatment. At varying time points after the surgery, ranging from 2 to 36 hr, bioluminescence signals were obtained by first giving a subcutaneous injection of luciferin (150 μg/g body weight) in the scruff of the neck 15 min before the start of imaging. The mice were briefly anesthetized with isoflurane and placed in the supine position in a bioluminescent imaging chamber (IVIS spectrum imager; Perkin Elmer, Waltham, Mass.) for 3-10 min. Average pixel intensity was measured from a pancreatic region of interest (in the upper abdomen). Raw time points from each mouse were normalized to its individual baseline intensity at time zero.

[2] = test system: IL-6, GADD45B, IL-1β gene expression; test: Real-time PCR of pancreatic head (IL-6, GADD45B, IL-1β); format: in vivo, mouse; details: RC exposure
Procedure: RNA extraction from whole pancreas and real-time PCR. Total RNA from the pancreatic head was obtained by homogenizing 40 mg of tissue in 2 ml of TRIzol reagent (Life Technologies; Grand Island N.Y.) at 4° C. and immediately flash frozen in liquid nitrogen. Samples were thawed on ice and centrifuged at 12,000×g for 10 min at 4° C. The supernatant was diluted with 200 μl of chloroform and centrifuged at 12,000×g for 15 min at 4° C. The upper aqueous phase was treated with 0.5 ml of isopropanol and centrifuged at 10,000×g for 10 min at 4° C. The pellet was resuspended with 150 μl of 75% ethanol and centrifuged at 7500×g for 5 min at 4° C. The pellet was air-dried and dissolved in 100 μl of nuclease-free water. Total RNA samples were used to generate cDNA using the iScript Advanced cDNA synthesis Kit (Bio Rad; Hercules, Calif.).
Quantitative real-time PCR (rtPCR) was performed to determine the relative expression of the cytokines IL-6 and IL-1β as well as the cell growth arrest and DNA-damage inducible gene GADD45B. The primer pairs for each as well as a GAPDH control were obtained as part of the PrimePCR-PreAMP SYBR Green Assay (Bio Rad; unique assay ID #qMmuCEP0054186, qMmuCID0005641, qMmuCEP0039581). rtPCR reactions were carried out in 20 μl volume reactions using the SsoAdvanced Universal Supermix SYBR Green system (Bio Rad). The reactions contained 1× SsoAdvanced Universal SYBR Green Supermix, 300 nM forward Primer, 300 nM reverse primer and 100 ng cDNA. rtPCR conditions were 95° C. for 10 sec and 60° C. for 30 sec for 35 cycles on a Bio Rad CFX96 Touch thermocycler (Bio Rad). Results for the expression of mRNA were normalized to expression of 18S rRNA and are represented relative to expression levels for each of the control groups.

[3] = test system: calcineurin (NFAT-luciferase); test: NFAT-luciferase activity assay (calcineurin activation), mouse primary acinar cells; format: cell-based; details: 30 min pre-treatment; FK506 24 μM; CsA 16 μM; BAPTA-AM 64 μM
Procedure: (§1) NFAT-luciferase activity assay. Acinar cells were infected with Ad-NFAT-luciferase following a previously described procedure^10,15,16. The construct includes a luciferase gene placed downstream of an IL-4 promoter which contains nine tandem NFAT binding sites^10. Acinar cells were incubated with the NFAT-driven luciferase adenovirus for 1.5 hr prior to stimulation. All of the stated inhibitors were added for 30 min prior to stimulation with RC. NFAT-luciferase was measured using the luciferase assay system. Briefly, cells were spun at 1,000 rpm for 5 min, washed with PBS, and lysed using reporter lysis 5× buffer (Promega #E397A, Madison, Wis.). Samples were vortexed and spun at 12,000 g for 2 min. Supernatant was plated, and luminescence was measured using a Synergy H1 plate reader (BioTek, Winooski, Vt.) and normalized to total protein.

[4] = test system: calcineurin (NFAT-luciferase); test: NFAT-luciferase activity assay, human acinar cells; format: cell-based
Procedure: as §1

[5] = test system: calcineurin (NFAT-luciferase); test: NFAT-luciferase activity assay, AR42J cells; format: cell-based; details: pretreatment; FK506 24 μM; CsA 16 μM; U73122 5 μM; 2-APB 100 μM; BAPTA 64 μM
Procedure: as §1

NF-κB = test: NF-κB-luciferase activity assay, AR42J cells; format: cell-based; details: U73122 5 μM; 2-APB 100 μM; BAPTA 64 μM
Procedure: NF-κB-luciferase activity assay. AR42J cells were differentiated towards an acinar phenotype by administering dexamethasone (100 nM) for 48-72 hr^17. AR42J cells were infected with Ad-NF-κB luciferase 16 h prior to stimulation using a previously described method^12. Following a wash with DMEM/F12 medium, acinar cells were evenly distributed in a 48-well plate and incubated for 30 min at 37° C. They were incubated with RC at varying concentrations and times. NF-κB-luciferase was measured using a commercially available luciferase assay (Promega, Madison, Wis.). Briefly, cells were spun at 1,000 rpm for 5 min, washed with PBS, and lysed using reporter lysis 5× buffer (Promega, catalog no. E397A). Samples were vortexed and spun at 12,000×g for 2 min. The supernatant was plated, and luminescence was measured using a Synergy H1 plate reader (BioTek, Winooski, Vt.) and normalized to total […].

NRK-52E renal cell line = details: long incubation (4 hr); cited from earlier work

## CC(=O)N(CC(O)CO)c1c(I)c(C(=O)NCC(O)CO)c(I)c(C(=O)NCC(O)CO)c1I (stereo not shown) [RC, iohexol]
pancreas; RC buffered with 10 mM HEPES, pH clamped at 6
  severity of pancreatitis at pH 6 compared to pH 7: no increased severity of pancreatitis
pancreas; intraductal RC at doubled rate and volume, pancreatic head 24 hr after procedure
  increase in histological severity above the intra-ductal NS sham control: 59%
pancreas; intraductal RC, 6 hr post-procedure
  serum amylase increase: at least 50%
[1]
  amplitude of Ca^2+ signal above baseline: 400%
Primary acinar cells; RC exposure for 6 hr
  propidium iodide (PI) uptake: concentration-dependent increase
Pancreatic acinar cells
  ATP levels: depletion of ATP levels
Pancreatic NF-κB
  peak in pancreatic NF-κB luciferase compared to NS sham: 13 fold
[2]
  expression of GADD45B: upregulated
  expression of IL-1β: upregulated
  expression of IL-6: upregulated

## CC(=O)OCOC(=O)CN(CC(=O)OCOC(C)=O)c1ccccc1OCCOc1ccccc1N(CC(=O)OCOC(C)=O)CC(=O)OCOC(C)=O [BAPTA, BAPTA-AM]
[3]
  effect on RC (9%)-induced rise in NFAT-luciferase: completely reduced
[4]
  effect on RC (25%)-induced NFAT-luciferase activity: prevented
[5]
  effect on RC (6%)-induced NFAT-luciferase activity: prevented
NF-κB
  effect on RC-induced NF-κB-luciferase levels: reduced
Primary acinar cells; 6 hr incubation, U73122 5 μM, 2-APB 100 μM, BAPTA 64 μM, IKK-2 20 μM, FK506 24 μM, CsA 16 μM
  effect on RC (12%)-induced acinar cell injury (PI uptake): prevented

## O=C(NCC(O)CO)c1c(I)c(C(=O)NCC(O)CO)c(I)c(N(CCO)C(=O)CO)c1I (stereo not shown) [ioversol]
NRK-52E renal cell line
  baseline cytosolic Ca^2+ levels: caused a slow, globalized increase in baseline cytosolic Ca^2+ levels

Source: US10898592B2, “Compositions and methods for reducing the risk of post-imaging pancreatitis” (University Of Pittsburgh—Of The Commonwealth System Of …, priority 2015, dated 2021)
